Reference: patent US11957671B2, “Benzodioxane modulators of leukotriene A4 hydrolase (LTA4H) for prevention and treatment of aging-associated diseases” (Alkahest, Inc., priority 2021, dated 2024)

Legend:
[1] = tested on: synthesis of LTB4 in human whole blood; assay: human whole blood (HWB) assay, LTB4 production inhibition; assay type: cell-based; settings: calcimycin 20 μM
Procedure: The compounds of the invention are additionally tested in a human whole blood (HWB) assay to determine their ability to inhibit the synthesis of LTB4 in a cellular system. Compounds are combined with heparinized human whole blood and incubated for 15 minutes at 37° C. Calcimycin (20 μM final, prepared in phosphate-buffered saline, pH 7.4) is then added and the mixture is incubated for another 30 minutes at 37° C. The samples are centrifuged for 5 min at low speed (1500×g) and the plasma layer is removed. Plasma LTB4 concentrations are then measured using an antibody-based homogenous time-resolved fluorescence method (CisBio, Bedford, Mass.). In general, the preferred potency range (IC50) of compounds in the HWB assay is between 10 nM to 10 μM, the more preferred potency range is 10 nM to 1 μM, and the most preferred potency range is 10 nM to 100 nM.

[2] = tested on: aged wild type (WT; C57BL/6) mice; assay: Radial Arm Water Maze (RAWM); assay type: in vivo, mouse; settings: 10 mg/kg PO daily, after 29 days of treatment
Procedure: The water maze (see, e.g. Alamed J, et al., Two-day radial-arm water maze learning and memory tasks; robust resolution of amyloid-related memory deficits in transgenic mice, Nat. Protoc., 1(4):1671-79 (2006)), was filled with water at least 24 hours prior to the test to equilibrate to 25° C. The water was dyed with white latex paint to make the animals visible for tracking and to allow for the use of a hidden platform. Eight distinct visual cues were placed at the end of each of eight arms of the RAWM inserts. On day 1 animals were subjected to 5 trials each with a visible platform and a 30-minute inter-trial interval. Animals had 60 seconds to reach the platform. […] The goal arm remained constant, and a different start arm was randomly assigned for each of the 5 trials so that mouse started in every arm once except for the two arms directly across from the platform. The goal arm was switched after every two mice and balanced between all treatment groups. After each trial the mice were placed in an empty cage with blue pads and allowed to dry off under a heat lamp before being placed back into their home cage. Testing day was 48 hours after training, when animals were subjected to the same test of 5 trials each and a 30-minute inter-trial interval, but with a hidden platform. Animals were scored for the number of errors (entry into a non-goal arm) and for latency to reach the platform. All trials were recorded using ANY-maze software.
Three independent cohorts of aged wild type (WT; C57BL/6) mice between twenty to twenty-two months of age (20-22 mo) were homogenized into two (2) groups by body weight, total distance travelled in the open field test, and average velocity in the open field test. Group 1 was administered vehicle control PO daily. Group 2 was administered 10 mg/kg of the LTA4H inhibitor Compound 1 PO daily. Both groups were dosed for either 10 days or 4 weeks daily. Behavioral assays were run during the last week of dosing and animals were sacrificed at the end of the study for histological and molecular assays.

aged mice = assay: LPS model of blood-brain-barrier (BBB) leakiness; assay type: in vivo, mouse
Procedure: FIGS. 63-66 report the results of an in vivo model of blood-brain-barrier (BBB) leakiness. Aged mice were treated for 4 weeks with vehicle or Compound 1 followed by an acute high dose of LPS was used to induce BBB breakdown. Sodium fluorescein was injected by tail vein and leakiness of sodium fluorescein into the brain was measured using a fluorescent plate reader. FIG. 63 reports that LPS induced BBB breakdown in young and aged mice. […] (n=69, 57)). FIG. 65 reports the GFAP intensity across a 60 micron (μm) long line drawn across the large descending vessels of the CA1 hippocampus after 4 weeks of dosing with vehicle or Compound 1 followed by a high dose LPS to induced BBB breakdown. (Mixed effects analysis with repeated measures. (n=69, 57)). FIG. 66 reports the results of in vivo target engagement assays with Compound 1 in mouse plasma. Whole blood from mice dosed with Compound 1 for 4 weeks followed by high dose LPS was incubated with a calcium ionophore to stimulate LTB4 release. Plasma was generated and LTB4 levels were measured using ELISA. LTB4 is the product of LTA4H hydrolysis so this assay reports on LTA4H enzymatic activity. […] (Kruskal-Wallis test with Dunn's multiple comparisons with post-hoc Mann-Whitney test. ****p<0.0001 (n=8, 9, 8, 9)).

[3] = tested on: Male C57BL/6 mice aged 20-21 months; assay: Cortical brain lysate Cardiovascular Disease Panel (Luminex); assay type: in vivo, mouse; settings: 10 mg/kg po one month
Procedure: Male C57BL/6 mice aged 20-21 months were treated with Vehicle or 10 mg/kg Compound 1 LTA4H inhibitor po for one month. Mice were anesthetized and perfused with saline. Brain tissue was collected, and sub dissected into cortex and hippocampus. Cortex samples were lysed in RIPA buffer and the soluble supernatant fraction was sent to Eve Technologies for analysis on the Cardiovascular Disease Panel using Luminex technology.

O=C(O)C1CCN(Cc2ccc([C@H]3COc4ccccc4O3)cc2)CC1 [Example 1, 1-{4-[(2S)-2,3-dihydro-1,4-benzodioxin-2-yl]benzyl}piperidine-4-carboxylic acid]
IC50 [1]: 179 nM
average number of errors during the last trial [2]: significant decreased in number of errors
latency to find the hidden platform, last trial [2]: trend towards a reduction in time to find the platform
number of errors during the training and testing phases [2]: small, but significant improvement in number of errors
LTB4 levels in calcimycin stimulated plasma (aged mice; 4 weeks of dosing followed by LPS): trending reduction
AQP4 intensity across large descending vessels of CA1 hippocampus (aged mice; 4 weeks of dosing then high dose LPS): trending reduction in AQP4 intensity
LTB4 levels in calcimycin stimulated plasma (aged mice; 4 weeks of dosing, without LPS): significant reduction in LTB4 levels
BBB leakiness (sodium fluorescein in brain) (aged mice; aged mice, 4 weeks treatment then acute high dose LPS): trend towards reduced BBB leakiness
cortical MMP9 protein [3]: trending reduction in cortical MMP9 protein
cortical Pecam-1 protein [3]: trending reduction in cortical Pecam-1 protein
